The values that follow come from patent US9493485B2, “Spirocyclic dihydro-thiazine and dihydro-oxazine BACE inhibitors, and compositions and uses thereof” (Imago Pharmaceuticals, Inc., priority 2012, dated 2016).

Assay [1] deals with T1, BACE1 (Homo sapiens (Human), UniProt P56817). Nature of the assay: BACE1 AlphaScreen assay (displacement of biotinylated BACE1 binding site probe). The settings on record: read-out: BACE1 AS IC50. As to the method: (§1) BACE1 activity can be assessed in an AlphaScreen® assay. Compounds to be assessed (e.g. compounds as described in the above examples) are serially diluted 1:4 in DMSO, then plated by diluting 10 μL of compound with 40 μl of assay buffer (1×PBS, 0.01% Tween-20, pH 7.0, 0.05% BSA). The diluted compound is transferred (4 μL per well) to a 386 well assay plate and 4 μL of BACE1 enzyme ([…]) is added and incubated for 15 minutes. This assay uses a probe that is a BACE1 binding sight ligand linked to biotin, which can be displaced by test compound dependent on compound binding affinity. This of biotinylated probe (4 μL) is added and incubated for 1 hour, followed with 4 μL of donor and acceptor bead mixture and incubated for 2 hours. The fluorescent signal is read on a plate reader and the value as a function of compound concentration is used to determine the IC50. Compounds are also assessed for BACE1 and Cathepsin D activity using an FP Assay. Compounds to be assessed (e.g. compounds as described in the above examples) are serially diluted 1:3 with DMSO and each concentration point is transferred to a 96 well plate, 6 μL per well, followed by addition of 194 μL of assay buffer (100 mM sodium acetate, pH 4.5 with 0.001% Tween-20). A 10 μL compound sample from this plate is transferred to a well of a 384 well plate and combined with 10 μL per well of BACE1 enzyme (0.3 nM in assay buffer) or Cathepsin D enzyme (1.8 nM in assay buffer) and the plate is incubated at room temperature for 30 minutes.
T1 sequence (P56817 46-501): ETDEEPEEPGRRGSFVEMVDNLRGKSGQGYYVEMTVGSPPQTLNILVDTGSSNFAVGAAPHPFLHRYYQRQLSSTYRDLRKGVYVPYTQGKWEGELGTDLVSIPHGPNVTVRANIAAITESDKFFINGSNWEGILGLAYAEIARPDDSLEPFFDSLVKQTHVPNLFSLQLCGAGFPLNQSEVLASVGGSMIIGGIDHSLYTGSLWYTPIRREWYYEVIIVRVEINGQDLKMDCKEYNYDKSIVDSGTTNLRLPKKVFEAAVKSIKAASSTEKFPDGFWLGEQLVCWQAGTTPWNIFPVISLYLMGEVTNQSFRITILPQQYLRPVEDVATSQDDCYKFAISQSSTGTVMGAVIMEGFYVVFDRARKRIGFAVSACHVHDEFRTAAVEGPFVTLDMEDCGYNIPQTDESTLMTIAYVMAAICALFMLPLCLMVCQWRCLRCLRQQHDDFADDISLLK
On the technique in general: In Alpha technology, singlet oxygen from a donor bead excites a nearby acceptor bead.

Assay [2] deals with Cathepsin D (Homo sapiens (Human), UniProt P07339). Nature of the assay: Cathepsin D FP assay. It is filed as biochemical. The settings on record: pH 4.5, read-out: CatD FP IC50. As to the method: as §1
Cathepsin D, sequence (P07339 65-412, species assumed): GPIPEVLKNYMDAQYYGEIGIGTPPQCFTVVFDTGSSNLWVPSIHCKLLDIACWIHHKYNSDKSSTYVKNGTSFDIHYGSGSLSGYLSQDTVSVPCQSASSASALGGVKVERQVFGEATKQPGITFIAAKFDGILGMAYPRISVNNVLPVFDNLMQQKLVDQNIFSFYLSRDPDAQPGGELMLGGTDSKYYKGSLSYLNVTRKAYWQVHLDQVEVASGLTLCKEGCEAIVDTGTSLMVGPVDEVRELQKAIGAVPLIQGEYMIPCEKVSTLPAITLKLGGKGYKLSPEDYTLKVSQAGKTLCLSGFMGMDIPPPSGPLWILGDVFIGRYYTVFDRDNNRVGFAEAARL
Assay [3] deals with BACE1 inhibition in HEKp293 cells transfected with APP751 gene (SWE293). Nature of the assay: SWE293 cellular assay: reduction of Aβ peptide production, ELISA. It is filed as cell-based. As to conditions: Homo sapiens, read-out: SWE293 ED50. As to the method:
BACE1 inhibition is also assessed in a cellular assay. HEKp293 cells transfected with APP751 gene (SWE293, American Type Culture Collection CRL-1563) are used to assess compounds for reduction in levels of Aβ peptide production. SWE293 cell medium is DMEM supplemented with 10% fetal bovine serum and 2 mM L-glutamine, 1.0 mM sodium pyruvate, 25 mM Hepes Buffer, 0.4 mg/mL geneticin (G418, Gibco BRL 860-181IIJ). Cells are maintained diluting 1:10 for 4 days in T-150 flask and 35 mL of cell media. For plating, cells are rinsed with 5 mL of 1×PBS, trypsinized with 4 mL of 0.05% Tripsin for 1 minute, and 12 mL of cell media is added. These are centrifuged at 1000 rpm for 4 minutes and the media aspirated, then 8 mL of media per flask is added. Based on cell count, appropriate amounts of cell and cell media are combined, and 180 μl per well are plated (96 well) and the plates are incubated overnight at 37° C., 5% CO2. Compounds to be tested are serially diluted 1:3 in DMSO and twice in media (without G418) in V-bottom plates and incubated at room temperature. Plated cells are washed with media, 3×50 μL per well and 17 μL per well of appropriate dilution of compound is added. Plates are incubated for 2 hours, and the wash steps, compound addition and incubation are repeated. Sample is transferred to capture plate (prepared with 266 antibody, see e.g. Johnson-Wood et al., PNAS February 1997, 94: 1550-1555), along with a standard curve of Aβ-40. ELISA assay is used to assess Aβ levels, washing with TBS, 0.05% Tween20 pH 7.5, then adding 1.3 mg/mL 3D6 antibody 1:900 in specimen diluents with thimericol is added (100 μl per well) and incubated for 1 hour. Wash step is repeated and Streptavidin-AP diluted 1:1000 in specimen diluents with thimerisol is added (100 μL per well) and incubated for 1 hour. Wash step is repeated and fluorescent substrate is added, 100 μL per well and incubated for 10 minutes followed by reading the fluorescent signal on a plate reader.
In general terms: In an ELISA, binding on a coated surface is turned into a signal by an enzyme label.

The target of assay [4] is T1, BACE1. Nature of the assay: BACE1 FP assay. It counts as biochemical. The settings on record: pH 4.5. As to the method:
as §1

[5] abbreviates: dose at which Aβ level is reduced by 50%, HEKp293 SWE293 cells.

Where two headings read alike, the source gives them in different places. A value given as a limit tells only on which side of the number the result lay.

Consider `CC1(c2cc(NC(=O)c3ccc(C#N)cn3)ccc2F)CC2(CCOCC2)OC(N)=N1` (centres unmarked) [Compound 9-139, N-(3-(2-amino-4-methyl-1,9-dioxa-3-azaspiro[5.5]undec-2-en-4-yl)-4-fluorophenyl)-5-cyanopicolinamide], for which the IC50 in assay [1] is 9 nM; in assay [2], above 30000 nM; in assay [3] (setting [5]), 5 nM; in assay [4], 48 nM.

Consider `CC1(c2cc(-c3cncnc3)ccc2F)CC2(CCOCC2)OC(N)=N1` (centres unmarked) [Compound 8-106, 4-(2-fluoro-5-(pyrimidin-5-yl)phenyl)-4-methyl-1,9-dioxa-3-azaspiro[5.5]undec-2-en-2-amine], for which the IC50 was 569 nM in assay [1], above 30000 nM in assay [2], 673 nM in assay [3] (setting [5]) and 12600 nM in assay [4].

On to `CC1(c2cc(NC(=O)c3ccc(Cl)cn3)ccc2F)CC2(CCOCC2)OC(N)=N1` (centres unmarked) [Compound 9-121, N-(3-(2-amino-4-methyl-1,9-dioxa-3-azaspiro[5.5]undec-2-en-4-yl)-4-fluorophenyl)-5-chloropicolinamide], for which the IC50 is 9 nM in assay [1], above 30000 nM in assay [2], 6 nM in assay [3] and 73 nM in assay [4].

For `C[C@]1(c2cc(NC(=O)c3ccc(C#N)cn3)ccc2F)N=C(N)OC2(CCC2)C1(F)F` [Compound 9-162, (R)—N-(3-(6-amino-9,9-difluoro-8-methyl-5-oxa-7-azaspiro[3.5]non-6-en-8-yl)-4-fluorophenyl)-5-cyanopicolinamide], the IC50 in assay [1] was 15 nM; in assay [2], above 30000 nM; in assay [3] (setting [5]), 39 nM; in assay [4] it was 40 nM.

For `C[C@@]1(c2cc(NC(=O)c3ccc(Cl)cn3)ccc2F)CC2(CCC2)SC(N)=N1` [Compound 9-145, (S)—N-(3-(6-amino-8-methyl-5-thia-7-azaspiro[3.5]non-6-en-8-yl)-4-fluorophenyl)-5-chloropicolinamide], the IC50 in assay [1] is 4.5 nM; in assay [2] it was above 30000 nM; in assay [3] (setting [5]), 2 nM; in assay [4] it was 1.9 nM.

For the compound `C[C@@]1(c2cc(NC(=O)c3ccc(F)cn3)ccc2F)CC2(CCC2)OC(N)=N1` [Compound 9-126, (S)—N-(3-(6-amino-8-methyl-5-oxa-7-azaspiro[3.5]non-6-en-8-yl)-4-fluorophenyl)-5-fluoropicolinamide], the IC50 in assay [1] is 11 nM; in assay [2], above 30000 nM; in assay [3] (setting [5]), 80 nM; in assay [4], 321 nM.

In the case of `CC1(c2cc(NC(=O)c3ccc(F)cn3)ccc2F)N=C(N)OC2(CCC2)C1(F)F` (centres unmarked) [Compound 9-159, N-(3-(6-amino-9,9-difluoro-8-methyl-5-oxa-7-azaspiro[3.5]non-6-en-8-yl)-4-fluorophenyl)-5-fluoropicolinamide], the IC50 in assay [1] is 40 nM; in assay [2] it was above 30000 nM; in assay [3] it was 225 nM; in assay [4] it was 210 nM.

Consider `CC1(c2cc(NC(=O)c3ccc(F)cn3)ccc2F)N=C(N)OC2(CCOCC2)C1(F)F` (centres unmarked) [Compound 9-155, N-(3-(2-amino-5,5-difluoro-4-methyl-1,9-dioxa-3-azaspiro[5.5]undec-2-en-4-yl)-4-fluorophenyl)-5-fluoropicolinamide], for which the IC50 is 31 nM in assay [1], above 30000 nM in assay [2], 177 nM in assay [3] (setting [5]) and 277 nM in assay [4].

Consider `CC#Cc1cncc(-c2csc([C@]3(C)CC4(CCOCC4)OC(N)=N3)c2)c1` [Compound 8-104, (S)-4-methyl-4-(4-(5-(prop-1-ynyl)pyridin-3-yl)thiophen-2-yl)-1,9-dioxa-3-azaspiro[5.5]undec-2-en-2-amine], for which the IC50 in assay [1] amounted to 16 nM; in assay [2] it was 14800 nM; in assay [3], 157 nM; in assay [4] it was 406 nM.

For `C[C@@]1(c2cc(NC(=O)c3ncc(Cl)cc3F)ccc2F)CC2(CCC2)OC(N)=N1` [Compound 9-131, (S)—N-(3-(6-amino-8-methyl-5-oxa-7-azaspiro[3.5]non-6-en-8-yl)-4-fluorophenyl)-5-chloro-3-fluoropicolinamide], the IC50 in assay [1] is 5.7 nM; in assay [2] it was above 30000 nM; in assay [3] (setting [5]), 46 nM; in assay [4] it was 87 nM.

Turning to `C[C@]1(c2cc(NC(=O)c3ccc(F)cn3)ccc2F)CC2(CCC2)OC(N)=N1` [Compound 9-127, (R)—N-(3-(6-amino-8-methyl-5-oxa-7-azaspiro[3.5]non-6-en-8-yl)-4-fluorophenyl)-5-fluoropicolinamide], the IC50 was 1310 nM in assay [1], above 30000 nM in assay [2], above 10000 nM in assay [3] (setting [5]) and 7440 nM in assay [4].

With `CC1(c2cc(NC(=O)c3ccc(F)cn3)ccc2F)CC2(CCOCC2)OC(N)=N1` (centres unmarked) [Compound 9-120, N-(3-(2-amino-4-methyl-1,9-dioxa-3-azaspiro[5.5]undec-2-en-4-yl)-4-fluorophenyl)-5-fluoropicolinamide], the IC50 in assay [1] was 19 nM; in assay [2], above 30000 nM; in assay [3] (setting [5]), 13 nM; in assay [4], 282 nM.

For the compound `CC1(c2cc(NC(=O)c3ccc(Cl)cn3)ccc2F)N=C(N)OC2(CCC2)C1(F)F` (centres unmarked) [Compound 9-160, N-(3-(6-amino-9,9-difluoro-8-methyl-5-oxa-7-azaspiro[3.5]non-6-en-8-yl)-4-fluorophenyl)-5-chloropicolinamide], the IC50 is 19.5 nM in assay [1], above 30000 nM in assay [2], 268 nM in assay [3] (setting [5]) and 66 nM in assay [4].

Take `COc1cccnc1Nc1ccc(F)c([C@]2(C)CC3(CCOCC3)SC(N)=N2)c1` [Compound 13-182, (S)-4-(2-fluoro-5-(3-methoxypyridin-2-ylamino)phenyl)-4-methyl-9-oxa-1-thia-3-azaspiro[5.5]undec-2-en-2-amine]: the IC50 in assay [1] was 2 nM; in assay [2], 14700 nM; in assay [3] (setting [5]), below 123 nM; in assay [4] it was 32 nM.

Consider `C[C@@]1(c2cc(NC(=O)c3ccc(F)cn3)ccc2F)CC2(CCOCC2)OC(N)=N1` [Compound 9-128, (S)—N-(3-(2-amino-4-methyl-1,9-dioxa-3-azaspiro[5.5]undec-2-en-4-yl)-4-fluorophenyl)-5-fluoropicolinamide], for which the IC50 in assay [1] was 4 nM; in assay [2], above 30000 nM; in assay [3] (setting [5]), 9 nM; in assay [4], 112 nM.

With `CC1(c2cc(NC(=O)c3ccc(Cl)cn3)ccc2F)CC2(CCOCC2)SC(N)=N1` (centres unmarked) [Compound 9-150, N-(3-(2-amino-4-methyl-9-oxa-1-thia-3-azaspiro[5.5]undec-2-en-4-yl)-4-fluorophenyl)-5-chloropicolinamide], the IC50 in assay [1] is 9 nM; in assay [2], 10600 nM; in assay [3] (setting [5]), below 4 nM; in assay [4], 4 nM.

As for `C[C@@]1(c2cc(NC(=O)c3ccc(Cl)cc3)ccc2F)CC2(CCC2)OC(N)=N1` [Compound 9-141, (S)—N-(3-(6-amino-8-methyl-5-oxa-7-azaspiro[3.5]non-6-en-8-yl)-4-fluorophenyl)-4-chlorobenzamide], the IC50 in assay [1] was 17.5 nM; in assay [2] it was above 30000 nM; in assay [3], 109 nM; in assay [4], 839 nM.
